“And” between values parts separate entries of the source, which are not always exact repeats. Identical values can stand only once. Inconclusive results and toxic doses are left out. Rule for the calls: active = survival T/C of 150% or more; inactive = T/C below 125% in these data.
System: P388 leukemia ip, CD2F1 mice, survival T/C
Assay: NCI In Vivo Anticancer Drug Screen. Data for tumor model P388 Leukemia (intraperitoneal) in CD2F1 (CDF1) mice
Conditions: endpoint: median survival time, higher = longer survival
In short: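 Mice carrying the transplanted tumor received test compound or vehicle. Survival was recorded in each group, and the value is the treated-group measurement divided by that of the vehicle-treated control group.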

[1] = dose: 6.25 mg/kg/injection, schedule: Q01DX005 (ip), vehicle: saline with Tween-80
[2] = dose: 12.5 mg/kg/injection, schedule: Q01DX005 (ip), vehicle: saline with Tween-80
[3] = dose: 25.0 mg/kg/injection, schedule: Q01DX005 (ip), vehicle: saline with Tween-80
[4] = dose: 50.0 mg/kg/injection, schedule: Q01DX005 (ip), vehicle: saline with Tween-80
[5] = dose: 100.0 mg/kg/injection, schedule: Q01DX005 (ip), vehicle: saline with Tween-80
[6] = dose: 200.0 mg/kg/injection, schedule: Q01DX005 (ip), vehicle: saline with Tween-80
[7] = dose: 50.0 mg/kg/injection, schedule: Q01DX009 (ip), vehicle: Klucel (hydroxypropylcellulose) (HPC)
[8] = dose: 100.0 mg/kg/injection, schedule: Q01DX009 (ip), vehicle: Klucel (hydroxypropylcellulose) (HPC)
[9] = dose: 200.0 mg/kg/injection, schedule: Q01DX009 (ip), vehicle: Klucel (hydroxypropylcellulose) (HPC)
[10] = dose: 50.0 mg/kg/injection, schedule: Q01DX005 (ip), vehicle: Klucel (hydroxypropylcellulose) (HPC)
[11] = dose: 100.0 mg/kg/injection, schedule: Q01DX005 (ip), vehicle: Klucel (hydroxypropylcellulose) (HPC)
[12] = dose: 200.0 mg/kg/injection, schedule: Q01DX005 (ip), vehicle: Klucel (hydroxypropylcellulose) (HPC)
[13] = dose: 100.0 mg/kg/injection, schedule: Q04DX003 (ip), vehicle: saline with Tween-80
[14] = dose: 200.0 mg/kg/injection, schedule: Q04DX003 (ip), vehicle: saline with Tween-80
[15] = dose: 400.0 mg/kg/injection, schedule: Q04DX003 (ip), vehicle: saline with Tween-80
[16] = dose: 60.0 mg/kg/injection, schedule: Q01DX005 (ip), vehicle: Klucel (hydroxypropylcellulose) (HPC)
[17] = dose: 120.0 mg/kg/injection, schedule: Q01DX005 (ip), vehicle: Klucel (hydroxypropylcellulose) (HPC)

Measured: T/C

CCC1(c2ccccc2)NN1C1CCCCC1 (stereo not drawn)
inactive: [1] 100 % of control | [2] 96 % of control | [3] 92 % of control | [4] 96 % of control | [5] 100 % of control | [6] 105 % of control

COC1=CC[C@H]2[C@H]3Cc4ccc(OC)c5c4[C@@]2(CCN3CC2CC2)C1O5 (stereo partly drawn)
inactive: dose: 100.0 mg/kg/injection, schedule: Q04DX002 (ip), vehicle: Klucel (hydroxypropylcellulose) (HPC) 97 % of control | dose: 200.0 mg/kg/injection, schedule: Q04DX002 (ip), vehicle: Klucel (hydroxypropylcellulose) (HPC) 102 % of control

Cc1cccc2c1CN1CC(=O)NC1=N2
inactive: [7] 103 % of control | [8] 97 % of control | [9] 86 % of control

COc1cc2c(cc1O)CCCC=C2C1CCCCc2cc(O)c(OC)cc21 (stereo not drawn)
inactive: dose: 100.0 mg/kg/injection, schedule: Q01DX009 (ip), vehicle: saline with Tween-80 104 % of control | dose: 200.0 mg/kg/injection, schedule: Q01DX009 (ip), vehicle: saline with Tween-80 94 % of control | dose: 400.0 mg/kg/injection, schedule: Q01DX009 (ip), vehicle: saline with Tween-80 91 % of control

CC[Se](CC)CC.CC[Se](CC)CC.C[CH2][Ge]([CH2]C)[O][Ge]([CH2]C)[CH2]C
inactive: dose: 3.12 mg/kg/injection, schedule: Q01DX009 (ip), vehicle: saline 99 % of control and 95 % of control | dose: 6.25 mg/kg/injection, schedule: Q01DX009 (ip), vehicle: saline 96 % of control (2×) and 97 % of control | dose: 12.5 mg/kg/injection, schedule: Q01DX009 (ip), vehicle: saline 101 % of control and 107 % of control and 96 % of control | dose: 25.0 mg/kg/injection, schedule: Q01DX009 (ip), vehicle: saline 117 % of control and 118 % of control

COc1cc2c(c(OC)c1OC)-c1cc3c(cc1C(OC1OC(CO)C(O)C(O)C1O)C1COC(=O)C1C2)OCO3 (stereo not drawn)
inactive: dose: 15.38 mg/kg/injection, schedule: Q01DX005 (ip), vehicle: Klucel (hydroxypropylcellulose) (HPC) 108 % of control | dose: 30.75 mg/kg/injection, schedule: Q01DX005 (ip), vehicle: Klucel (hydroxypropylcellulose) (HPC) 100 % of control | dose: 61.5 mg/kg/injection, schedule: Q01DX005 (ip), vehicle: Klucel (hydroxypropylcellulose) (HPC) 113 % of control | dose: 123.0 mg/kg/injection, schedule: Q01DX005 (ip), vehicle: Klucel (hydroxypropylcellulose) (HPC) 121 % of control

N#CCOC1OC(CO)C(O)C(O)C1O (stereo not drawn)
inactive: [10] 100 % of control | [11] 99 % of control | [12] 99 % of control

COc1ccccc1N=Cc1ccc(C=Nc2ccccc2OC)cc1
inactive: [7] 97 % of control | [8] 98 % of control | [9] 101 % of control and 88 % of control

CC(C)(C)OC(=O)NC(CCCCNC(=O)OCC1c2ccccc2-c2ccccc21)C(=O)O (stereo not drawn)
inactive: [10] 103 % of control | [11] 99 % of control | [12] 103 % of control

Cc1ccc(NCC2(/N=C/c3ccccc3)OC(CO)C(O)C2O)cc1 (stereo not drawn)
active: dose: 266.0 mg/kg/injection, schedule: Q01DX009 (ip), vehicle: Klucel (hydroxypropylcellulose) (HPC) 150 % of control and 157 % of control | dose: 400.0 mg/kg/injection, schedule: Q01DX009 (ip), vehicle: Klucel (hydroxypropylcellulose) (HPC) 170 % of control and 176 % of control

O=C(/C=C/c1ccc(OCC2CO2)cc1)c1cc2ccccc2nc1Cl (stereo not drawn)
inactive: dose: 100.0 mg/kg/injection, schedule: Q04DX002 (ip), vehicle: saline with Tween-80 100 % of control | dose: 200.0 mg/kg/injection, schedule: Q04DX002 (ip), vehicle: saline with Tween-80 100 % of control | dose: 400.0 mg/kg/injection, schedule: Q04DX002 (ip), vehicle: saline with Tween-80 100 % of control

O=C(/C(=N/Nc1ccccc1)C(=S)Nc1ccccc1)c1ccccc1
inactive: dose: 3.13 mg/kg/injection, schedule: Q01DX005 (ip), vehicle: saline with Tween-80 99 % of control | [1] 95 % of control | [2] 91 % of control and 92 % of control | [3] 90 % of control | [4] 89 % of control and 93 % of control | [6] 90 % of control

COc1ccc(CN2CCc3cc(OC)c(O)cc3C2)cc1O
inactive: dose: 100.0 mg/kg/injection, schedule: Q01DX001 (ip), vehicle: saline with Tween-80 94 % of control | dose: 200.0 mg/kg/injection, schedule: Q01DX001 (ip), vehicle: saline with Tween-80 98 % of control

O=C(O)Cc1cc(Br)c(O)c(Br)c1
inactive: dose: 12.5 mg/kg/injection, schedule: Q01DX009 (ip), vehicle: distilled water + Tween-80 107 % of control | dose: 25.0 mg/kg/injection, schedule: Q01DX009 (ip), vehicle: distilled water + Tween-80 107 % of control | dose: 50.0 mg/kg/injection, schedule: Q01DX009 (ip), vehicle: distilled water + Tween-80 98 % of control | dose: 100.0 mg/kg/injection, schedule: Q01DX009 (ip), vehicle: distilled water + Tween-80 98 % of control | dose: 200.0 mg/kg/injection, schedule: Q01DX009 (ip), vehicle: distilled water + Tween-80 100 % of control

Cc1ccc(NC(=O)C(c2ccccc2)c2ccccc2)cc1
inactive: [13] 98 % of control | [14] 97 % of control | [15] 92 % of control

COP(=O)(OC)/C(C)=N/NS(=O)(=O)c1ccc(C)cc1
inactive: dose: 12.5 mg/kg/injection, schedule: Q01DX009 (ip), vehicle: other 91 % of control | dose: 25.0 mg/kg/injection, schedule: Q01DX009 (ip), vehicle: other 91 % of control | dose: 50.0 mg/kg/injection, schedule: Q01DX009 (ip), vehicle: other 99 % of control | dose: 100.0 mg/kg/injection, schedule: Q01DX009 (ip), vehicle: other 100 % of control | dose: 200.0 mg/kg/injection, schedule: Q01DX009 (ip), vehicle: other 98 % of control | dose: 400.0 mg/kg/injection, schedule: Q01DX009 (ip), vehicle: other 94 % of control

CS(=N)(=O)c1ccccc1N (stereo not drawn)
inactive: [13] 98 % of control | [14] 99 % of control | [15] 103 % of control

N#Cc1nc(CC(=O)c2ccccc2)c(CC(=O)c2ccccc2)nc1C#N
inactive: dose: 60.0 mg/kg/injection, schedule: Q01DX005 (ip), vehicle: saline with Tween-80 100 % of control | dose: 120.0 mg/kg/injection, schedule: Q01DX005 (ip), vehicle: saline with Tween-80 106 % of control and 94 % of control | dose: 240.0 mg/kg/injection, schedule: Q01DX005 (ip), vehicle: saline with Tween-80 100 % of control and 91 % of control

O=C1C(=C2CCCC2)CC/C1=C1/SS/C(=C2/CCC(=C3CCCC3)C2=O)S1
inactive: [7] 99 % of control | [8] 101 % of control | [9] 100 % of control

O=C(O)CC12CC3CC(CC(=O)O)(C1)CC(CC(=O)O)(C3)C2
inactive: [7] 109 % of control | [8] 108 % of control | [9] 111 % of control

O=C(Nc1nnc(-c2ccccc2)s1)c1cc(=O)c2ccccc2o1
inactive: [4] 93 % of control | [5] 96 % of control | [6] 92 % of control

Cc1ccc(SSC(=S)N2CCOCC2)cc1
inactive: dose: 100.0 mg/kg/injection, schedule: Q01DX001 (ip), vehicle: Klucel (hydroxypropylcellulose) (HPC) 104 % of control | dose: 200.0 mg/kg/injection, schedule: Q01DX001 (ip), vehicle: Klucel (hydroxypropylcellulose) (HPC) 96 % of control | dose: 400.0 mg/kg/injection, schedule: Q01DX001 (ip), vehicle: Klucel (hydroxypropylcellulose) (HPC) 101 % of control

COc1ccc(-n2cnc3c(cnn3CN3CCCCC3)c2=O)cc1
inactive: [16] 104 % of control | [17] 103 % of control

CCc1nc(N)nc(N)c1-c1ccc(NC)c([N+](=O)[O-])c1
active: [11] 182 % of control

Cn1c(N)nc2c([nH]c(=O)n2C2OC(CO)C(O)C2O)c1=O (stereo not drawn)
inactive: [16] 105 % of control | [17] 111 % of control | dose: 240.0 mg/kg/injection, schedule: Q01DX005 (ip), vehicle: Klucel (hydroxypropylcellulose) (HPC) 111 % of control

O=C(O)CC(=O)NC1c2ccccc2Oc2ccccc21
inactive: [10] 94 % of control | [11] 97 % of control | [12] 99 % of control

NC(=O)C(Cl)Cl
inactive: dose: 100.0 mg/kg/injection, schedule: Q04DX002 (ip), vehicle: saline 108 % of control | dose: 200.0 mg/kg/injection, schedule: Q04DX002 (ip), vehicle: saline 100 % of control | dose: 400.0 mg/kg/injection, schedule: Q04DX002 (ip), vehicle: saline 100 % of control

Source: PubChem BioAssay AID330 (DTP/NCI, 2004)
